Reference: patent publication US6274715A, “Tricyclic erythromycin derivatives” (priority 1997, dated 2001)
Values after ≈ are worked out from the molar mass of the structure shown.

Experiments:
Format in all cases: cell-based
[1] = system: KLEBSIELLA PNEUMONIAE ATCC 8045; experiment: In vitro antibacterial activity, MIC, BHI agar dilution; details: K. pneumoniae ATCC 8045, unit assumed
[2] = system: PSEUDOMONAS AERUGINOSA DPHD-5263; experiment: as above; details: P. aeruginosa DPHD-5263, unit assumed
[3] = system: PROVIDENCIA STUARTII CMX 640; details: P. stuartii CMX 640; BHI agar; unit assumed
[4] = system: STREPTOCOCCUS PYOGENES 930; experiment: In vitro antibacterial activity, MIC, BHI agar dilution; details: S. pyogenes 930, unit assumed
[5] = system: PSEUDOMONAS AERUGINOSA BMH10; experiment: as above; details: P. aeruginosa BMH10, unit assumed
CANDIDA ALBICANS CCH 442 = experiment: as above; details: C. albicans CCH 442, unit assumed
[6] = system: STAPHYLOCOCCUS AUREUS ATCC 6538P; experiment: as above; details: S. aureus ATCC 6538P, 35-37° C., 20 to 24 hours, unit assumed
PSEUDOMONAS CEPACIA 296I = experiment: as above; details: P. cepacia 296I, unit assumed
[7] = system: STREPTOCOCCUS PYOGENES EES61; experiment: as above; details: S. pyogenes EES61, unit assumed
[8] = system: STREPTOCOCCUS BOVIS A-5169; experiment: as above; details: S. bovis A-5169, unit assumed
[9] = system: STAPHYLOCOCCUS EPIDERMIDIS 3519; details: S. epidermidis 3519; BHI agar; unit assumed
[10] = system: STAPHYLOCOCCUS AUREUS A5177; experiment: In vitro antibacterial activity, MIC, BHI agar dilution; details: S. aureus A5177, unit assumed
ESCHERICHIA COLI SS = experiment: as above; details: E. coli SS, unit assumed
[11] = system: ENTEROBACTER AEROGENES ATCC 13048; experiment: as above; details: E. aerogenes ATCC 13048, unit assumed
[12] = system: STREPTOCOCCUS PYOGENES PIU 2548; experiment: as above; details: S. pyogenes PIU 2548, unit assumed
ESCHERICHIA COLI JUHL = details: E. coli JUHL; BHI agar; unit assumed
[13] = system: STAPHYLOCOCCUS AUREUS CMX 553; experiment: In vitro antibacterial activity, MIC, BHI agar dilution; details: S. aureus CMX 553, unit assumed
[14] = system: PSEUDOMONAS AERUGINOSA K799/61; experiment: as above; details: P. aeruginosa K799/61, unit assumed
ESCHERICHIA COLI KNK 437 = details: E. coli KNK 437; BHI agar; unit assumed
ESCHERICHIA COLI H560 = experiment: In vitro antibacterial activity, MIC, BHI agar dilution; details: E. coli H560, unit assumed
[15] = system: STAPHYLOCOCCUS AUREUS CMX 642A; experiment: as above; details: S. aureus CMX 642A, unit assumed
[16] = system: STAPHYLOCOCCUS AUREUS NCTC10649M; experiment: as above; details: S. aureus NCTC10649M, unit assumed
[17] = system: PSEUDOMONAS AERUGINOSA K799/WT; experiment: as above; details: P. aeruginosa K799/WT, unit assumed
M[…] ATCC 4698 = experiment: as above; details: M. luteus ATCC 4698, unit assumed
Summary of the method: (§1)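 MIC was read visually as the lowest drug concentration showing no growth, a slight haze or sparsely isolated colonies relative to a compound-free BHI plate. Plates held serial aqueous dilutions in BHI agar, were spot-inoculated with 1:100 (or 1:10) culture dilutions and incubated 20 to 24 hours at 35-37° C.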

STR[…] 508 = experiment: as above; details: S. agalactiae CMX 508, unit assumed
Summary of the method: as §1

M[…] ATCC 9341 = experiment: as above; details: M. luteus ATCC 9341, unit assumed
Summary of the method: as §1

EN[…] ATCC 8043 = experiment: as above; details: E. faecium ATCC 8043, unit assumed
Summary of the method: as §1

[18] = system: STAPHYLOCOCCUS AUREUS 1775; experiment: as above; details: S. aureus 1775, unit assumed
[19] = system: PSEUDOMONAS AERUGINOSA 5007; experiment: as above; details: P. aeruginosa 5007, unit assumed
[20] = system: PSEUDOMONAS AERUGINOSA DPHD-2862; experiment: as above; details: P. aeruginosa DPHD-2862, unit assumed
ESCHERICHIA COLI DC-2 = experiment: as above; details: E. coli DC-2, unit assumed
[21] = system: MYCOBACTERIUM SMEGMATIS ATCC 114; experiment: as above; details: M. smegmatis ATCC 114, unit assumed
[22] = system: STAPHYLOCOCCUS AUREUS A-5278; experiment: as above; details: S. aureus A-5278, unit assumed

SMILES | MIC [1] [µg/mL] | MIC [2] [µg/mL] | MIC [3] [µg/mL] | MIC [4] [µg/mL] | MIC [5] [µg/mL] | MIC (CANDIDA ALBICANS CCH 442) [µg/mL] | MIC [6] [µg/mL] | MIC (PSEUDOMONAS CEPACIA 296I) [µg/mL] | MIC [7] [µg/mL] | MIC [8] [µg/mL] | MIC [9] [µg/mL] | MIC [10] [µg/mL] | MIC (ESCHERICHIA COLI SS) [µg/mL] | MIC [11] [µg/mL] | MIC [12] [µg/mL] | MIC (ESCHERICHIA COLI JUHL) [µg/mL] | MIC [13] [µg/mL] | MIC [14] [µg/mL] | MIC (ESCHERICHIA COLI KNK 437) [µg/mL] | MIC (ESCHERICHIA COLI H560) [µg/mL] | other results
CC[C@H]1OC(=O)[C@H](C)C(=O)[C@H](C)[C@@H](O[C@@H]2O[C@H](C)C[C@H](N(C)C)[C@H]2O)[C@](C)(OC)C[C@@H](C)C2=NC3CN(C=O)CC3N3C(=O)O[C@@]1(C)[C@H]3[C@H]2C (stereo partly drawn) [Example 124] | > 100 | > 100 | > 100 | > 100 | > 100 | > 100 | 0.78 (≈ 1.1 µM) | > 100 | 0.02 (≈ 0.0283 µM) | 0.05 (≈ 0.0707 µM) | 3.1 (≈ 4.39 µM) | 1.56 (≈ 2.21 µM) | 0.78 (≈ 1.1 µM) | > 100 | 3.1 (≈ 4.39 µM) | 100 (≈ 141 µM) | 0.78 (≈ 1.1 µM) | 0.78 (≈ 1.1 µM) | 100 (≈ 141 µM) | 50 (≈ 70.7 µM) | MIC [15]: 0.78 µg/mL (≈ 1.1 µM); MIC [16]: 0.78 µg/mL (≈ 1.1 µM); MIC [17]: 100 µg/mL (≈ 141 µM); MIC (M[…] ATCC 4698): 0.39 µg/mL (≈ 0.552 µM); MIC (STR[…] 508): 0.1 µg/mL (≈ 0.141 µM); MIC (M[…] ATCC 9341): 0.1 µg/mL (≈ 0.141 µM); MIC (EN[…] ATCC 8043): 0.2 µg/mL (≈ 0.283 µM); MIC [18]: > 100 µg/mL; MIC [19]: > 100 µg/mL; MIC [20]: > 100 µg/mL; MIC (ESCHERICHIA COLI DC-2): 100 µg/mL (≈ 141 µM); MIC [21]: 25 µg/mL (≈ 35.4 µM); MIC [22]: > 100 µg/mL
CC[C@H]1OC(=O)[C@H](C)C(=O)[C@H](C)[C@@H](O[C@@H]2O[C@H](C)C[C@H](N(C)C)[C@H]2O)[C@](C)(OC)C[C@@H](C)C2=NC3CN(CC(OC)OC)CC3N3C(=O)O[C@@]1(C)[C@H]3[C@H]2C (stereo partly drawn) [Example 127] | > 100 | > 100 | > 100 | > 100 | > 100 | > 100 | 3.1 (≈ 4.04 µM) | > 100 | 0.1 (≈ 0.13 µM) | 0.1 (≈ 0.13 µM) | 1.56 (≈ 2.03 µM) | 1.56 (≈ 2.03 µM) | 1.56 (≈ 2.03 µM) | > 100 | 1.56 (≈ 2.03 µM) | > 100 | 1.56 (≈ 2.03 µM) | 3.1 (≈ 4.04 µM) | > 100 | > 100 | MIC [15]: 3.1 µg/mL (≈ 4.04 µM); MIC [16]: 1.56 µg/mL (≈ 2.03 µM); MIC [17]: > 100 µg/mL; MIC (M[…] ATCC 4698): 1.56 µg/mL (≈ 2.03 µM); MIC (STR[…] 508): 0.2 µg/mL (≈ 0.261 µM); MIC (M[…] ATCC 9341): 0.39 µg/mL (≈ 0.508 µM); MIC (EN[…] ATCC 8043): 0.39 µg/mL (≈ 0.508 µM); MIC [18]: > 100 µg/mL; MIC [19]: > 100 µg/mL; MIC [20]: > 100 µg/mL; MIC (ESCHERICHIA COLI DC-2): > 100 µg/mL; MIC [21]: 25 µg/mL (≈ 32.6 µM); MIC [22]: > 100 µg/mL
